US12054721B2, “Compositions and methods for 3-hydroxypropionic acid production” (CARGILL, INCORPORATED, priority 2010, dated 2024)

System: yeast cells
Test: EMS mutagenesis of yeast cells (kill rate)
Format: cell-based
Conditions: 3 μL EMS in 200 μL cell suspension (OD600 around 10), approximately one hour
Description: For example, yeast cells from a fresh YP (yeast extract/peptone)+20 g/L glucose plate or liquid culture (OD600 1-4) are resuspended in sterile water to an OD600 of around 10. 200 μL aliquots of this cell suspension are pipetted into individual tubes and exposed to 3 μL […] (EMS) for approximately one hour, which kills around 65% of the cells. Higher EMS concentrations can also be used to increase the kill rate. After exposure, cells are neutralized with 5% sodium thiosulfate, washed in PBS buffer, recovered in rich media for approximately four hours, and cultured on selective media. Mock samples (no EMS) are also run to ensure that the conditions are selective. Alternatively, cells can be mutagenized using UV irradiation.

Compound: CCOS(C)(=O)=O [ethane methyl sulfonate (EMS), ethane methyl sulfonate]
- cells killed: around 65%
